Laboratory results as given in the supplement of paper PMC12076712.

Key:
Assay in all cases: pIC50, kinobeads binding competition
ADCK1 = target: T1, ADCK1 (UniProt Q86TW2); details: cell material: Lysate mix
T1 sequence (whole entry): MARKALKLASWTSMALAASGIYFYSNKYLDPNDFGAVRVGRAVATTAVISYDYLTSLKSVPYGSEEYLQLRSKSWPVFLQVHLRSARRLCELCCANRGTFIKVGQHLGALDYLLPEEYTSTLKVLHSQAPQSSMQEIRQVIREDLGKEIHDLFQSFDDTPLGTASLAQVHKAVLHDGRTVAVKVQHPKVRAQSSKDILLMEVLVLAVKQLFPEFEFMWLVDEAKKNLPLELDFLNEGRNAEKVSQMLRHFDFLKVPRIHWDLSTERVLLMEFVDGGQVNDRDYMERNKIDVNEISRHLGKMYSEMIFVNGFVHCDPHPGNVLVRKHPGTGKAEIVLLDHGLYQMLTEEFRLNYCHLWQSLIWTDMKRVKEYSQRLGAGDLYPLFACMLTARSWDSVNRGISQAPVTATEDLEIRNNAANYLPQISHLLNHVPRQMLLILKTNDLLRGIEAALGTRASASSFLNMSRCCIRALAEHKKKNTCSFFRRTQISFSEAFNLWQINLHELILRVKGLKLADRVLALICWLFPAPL
How it was run: (§1)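 pIC50 was obtained by fitting fold changes against vehicle to logistic dose-response curves with the R drc package, using biological duplicates. Kinobeads-bound proteins were digested and measured by TMT10 LC-MS/MS. Before this, either living Jurkat cells received nine compound concentrations (top 30 μM, 1:4 steps) for 60 min at 37 °C prior to lysis, or Jurkat lysate or a 1:1:1:1 HEK293/K-562/HepG2/placenta lysate mix received nine concentrations (top 30 μM, 1:5 steps) for 60 min at 4 °C.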

MAPKAPK3 = MAPKAPK3 (UniProt Q16644)
How it was run: as §1

SGK2 = target: T2, SGK2 (UniProt Q9HBY8); details: cell material: Lysate mix
T2 sequence (whole entry): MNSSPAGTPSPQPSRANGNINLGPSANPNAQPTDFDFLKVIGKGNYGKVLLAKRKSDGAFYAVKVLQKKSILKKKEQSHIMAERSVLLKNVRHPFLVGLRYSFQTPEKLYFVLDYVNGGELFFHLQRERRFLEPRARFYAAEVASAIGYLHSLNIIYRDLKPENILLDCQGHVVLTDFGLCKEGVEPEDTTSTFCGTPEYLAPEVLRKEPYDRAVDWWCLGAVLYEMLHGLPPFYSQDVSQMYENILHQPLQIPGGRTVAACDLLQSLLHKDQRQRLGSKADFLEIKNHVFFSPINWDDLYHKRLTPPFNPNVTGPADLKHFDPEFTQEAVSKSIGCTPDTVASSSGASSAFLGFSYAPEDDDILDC
How it was run: as §1

KIT = KIT (UniProt P10721); details: cell material: Lysate mix
How it was run: as §1

UniProt Q9HCP0 = target: UniProt Q9HCP0
How it was run: as §1

PRPF4B = PRPF4B (UniProt Q13523); details: cell material: Lysate mix
How it was run: as §1

UniProt P16234 = details: cell material: Lysate mix
How it was run: as §1

STRADA = target: T3, STRADA (UniProt Q7RTN6)
T3 sequence (whole entry): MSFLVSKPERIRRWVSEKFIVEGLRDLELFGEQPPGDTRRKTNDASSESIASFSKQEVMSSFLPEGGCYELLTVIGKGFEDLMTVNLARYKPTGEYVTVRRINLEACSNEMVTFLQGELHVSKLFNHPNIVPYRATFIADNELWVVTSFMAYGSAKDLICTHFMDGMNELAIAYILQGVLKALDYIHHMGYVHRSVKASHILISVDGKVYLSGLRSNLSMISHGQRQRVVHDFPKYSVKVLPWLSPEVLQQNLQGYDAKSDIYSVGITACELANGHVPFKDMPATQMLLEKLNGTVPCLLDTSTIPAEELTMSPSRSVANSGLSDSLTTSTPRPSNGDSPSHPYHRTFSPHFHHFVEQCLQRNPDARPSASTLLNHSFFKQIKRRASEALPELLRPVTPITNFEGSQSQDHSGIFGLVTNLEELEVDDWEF
How it was run: as §1

RPS6KA6 = RPS6KA6 (UniProt Q9UK32); details: cell material: Lysate mix
How it was run: as §1

TBK1 = target: T4, TBK1 (UniProt Q9UHD2)
T4 sequence (whole entry): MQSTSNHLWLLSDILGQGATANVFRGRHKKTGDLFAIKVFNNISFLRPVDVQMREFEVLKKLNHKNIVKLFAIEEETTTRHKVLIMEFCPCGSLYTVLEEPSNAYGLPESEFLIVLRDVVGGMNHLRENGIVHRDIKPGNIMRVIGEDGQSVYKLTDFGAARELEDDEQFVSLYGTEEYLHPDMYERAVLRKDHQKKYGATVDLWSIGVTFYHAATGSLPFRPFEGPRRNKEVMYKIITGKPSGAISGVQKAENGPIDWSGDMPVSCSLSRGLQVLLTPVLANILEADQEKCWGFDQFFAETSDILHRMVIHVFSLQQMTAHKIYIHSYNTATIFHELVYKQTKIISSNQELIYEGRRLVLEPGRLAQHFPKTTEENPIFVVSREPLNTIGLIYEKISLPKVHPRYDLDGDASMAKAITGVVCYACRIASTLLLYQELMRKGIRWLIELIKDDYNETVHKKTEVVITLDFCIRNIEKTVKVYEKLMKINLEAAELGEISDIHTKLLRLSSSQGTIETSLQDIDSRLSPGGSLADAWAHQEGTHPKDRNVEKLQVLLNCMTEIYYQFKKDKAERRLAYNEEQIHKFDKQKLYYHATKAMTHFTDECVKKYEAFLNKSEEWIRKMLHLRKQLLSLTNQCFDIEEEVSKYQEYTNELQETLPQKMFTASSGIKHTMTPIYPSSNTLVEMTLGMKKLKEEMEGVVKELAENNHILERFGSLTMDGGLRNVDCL
How it was run: as §1

Chain of UniProt Q9HCP0 (Q9HCP0 whole entry, looked up): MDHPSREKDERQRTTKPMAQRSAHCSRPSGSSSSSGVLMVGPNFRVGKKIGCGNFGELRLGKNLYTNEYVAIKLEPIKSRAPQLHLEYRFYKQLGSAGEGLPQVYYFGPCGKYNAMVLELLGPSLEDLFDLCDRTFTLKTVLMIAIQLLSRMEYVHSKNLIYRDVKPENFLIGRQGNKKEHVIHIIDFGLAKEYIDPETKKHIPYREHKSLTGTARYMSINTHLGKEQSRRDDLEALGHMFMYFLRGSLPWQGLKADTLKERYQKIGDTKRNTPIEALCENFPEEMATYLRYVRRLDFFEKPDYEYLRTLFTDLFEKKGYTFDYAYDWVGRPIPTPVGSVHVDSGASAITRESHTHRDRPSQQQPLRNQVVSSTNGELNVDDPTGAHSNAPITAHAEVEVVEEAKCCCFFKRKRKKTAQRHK
Chain of PRPF4B (Q13523 whole entry, looked up): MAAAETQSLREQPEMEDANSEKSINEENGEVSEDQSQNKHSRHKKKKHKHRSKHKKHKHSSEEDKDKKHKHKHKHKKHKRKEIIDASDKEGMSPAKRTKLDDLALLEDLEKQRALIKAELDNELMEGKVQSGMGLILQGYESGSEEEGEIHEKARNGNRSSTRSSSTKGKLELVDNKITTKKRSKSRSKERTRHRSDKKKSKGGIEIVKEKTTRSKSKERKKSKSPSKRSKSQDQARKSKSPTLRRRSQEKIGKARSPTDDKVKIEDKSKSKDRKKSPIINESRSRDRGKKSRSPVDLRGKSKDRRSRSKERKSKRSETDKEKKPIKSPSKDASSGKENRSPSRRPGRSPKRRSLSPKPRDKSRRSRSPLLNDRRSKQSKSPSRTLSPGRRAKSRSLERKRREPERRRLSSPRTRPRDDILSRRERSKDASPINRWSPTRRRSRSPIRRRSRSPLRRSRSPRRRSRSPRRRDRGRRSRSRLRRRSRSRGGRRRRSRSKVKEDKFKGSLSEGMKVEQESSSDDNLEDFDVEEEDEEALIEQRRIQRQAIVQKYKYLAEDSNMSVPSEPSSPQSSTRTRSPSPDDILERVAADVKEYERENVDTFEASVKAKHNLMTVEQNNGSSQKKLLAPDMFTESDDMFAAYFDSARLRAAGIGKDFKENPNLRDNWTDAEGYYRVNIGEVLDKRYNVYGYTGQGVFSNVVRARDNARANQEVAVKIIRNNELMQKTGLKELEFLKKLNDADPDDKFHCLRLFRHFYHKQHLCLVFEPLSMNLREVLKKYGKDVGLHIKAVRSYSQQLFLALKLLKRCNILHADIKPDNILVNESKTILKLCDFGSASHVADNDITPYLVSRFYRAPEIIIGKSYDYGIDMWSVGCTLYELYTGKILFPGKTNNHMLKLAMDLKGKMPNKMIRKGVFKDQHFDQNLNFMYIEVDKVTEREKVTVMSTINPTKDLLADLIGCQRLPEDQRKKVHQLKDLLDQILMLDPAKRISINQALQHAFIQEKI
Chain of KIT (P10721 whole entry): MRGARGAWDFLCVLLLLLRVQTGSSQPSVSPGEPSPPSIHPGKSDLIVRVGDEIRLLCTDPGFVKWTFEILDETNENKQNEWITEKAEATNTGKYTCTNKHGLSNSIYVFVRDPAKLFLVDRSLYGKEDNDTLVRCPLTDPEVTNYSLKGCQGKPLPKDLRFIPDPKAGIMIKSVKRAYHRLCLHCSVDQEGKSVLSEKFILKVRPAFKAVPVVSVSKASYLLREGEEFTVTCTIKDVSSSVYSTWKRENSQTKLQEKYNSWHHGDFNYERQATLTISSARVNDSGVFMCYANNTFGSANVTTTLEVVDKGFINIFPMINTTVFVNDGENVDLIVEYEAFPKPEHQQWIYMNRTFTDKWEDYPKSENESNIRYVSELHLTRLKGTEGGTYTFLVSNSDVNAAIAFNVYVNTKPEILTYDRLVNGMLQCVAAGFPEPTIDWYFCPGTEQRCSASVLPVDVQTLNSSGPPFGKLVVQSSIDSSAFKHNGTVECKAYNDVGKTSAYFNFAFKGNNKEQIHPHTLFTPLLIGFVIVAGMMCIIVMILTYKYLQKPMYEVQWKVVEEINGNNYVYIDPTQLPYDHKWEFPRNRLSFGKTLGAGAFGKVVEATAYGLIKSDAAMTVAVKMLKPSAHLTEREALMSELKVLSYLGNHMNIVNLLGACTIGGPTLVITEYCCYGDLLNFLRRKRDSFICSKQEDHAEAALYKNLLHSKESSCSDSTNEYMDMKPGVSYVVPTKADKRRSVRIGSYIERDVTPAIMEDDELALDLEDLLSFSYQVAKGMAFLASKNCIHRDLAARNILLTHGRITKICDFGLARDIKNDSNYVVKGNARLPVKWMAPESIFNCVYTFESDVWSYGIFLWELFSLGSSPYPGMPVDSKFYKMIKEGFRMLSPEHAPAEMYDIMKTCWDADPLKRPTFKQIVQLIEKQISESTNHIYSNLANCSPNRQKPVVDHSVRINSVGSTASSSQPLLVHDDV
Chain of RPS6KA6 (Q9UK32 whole entry): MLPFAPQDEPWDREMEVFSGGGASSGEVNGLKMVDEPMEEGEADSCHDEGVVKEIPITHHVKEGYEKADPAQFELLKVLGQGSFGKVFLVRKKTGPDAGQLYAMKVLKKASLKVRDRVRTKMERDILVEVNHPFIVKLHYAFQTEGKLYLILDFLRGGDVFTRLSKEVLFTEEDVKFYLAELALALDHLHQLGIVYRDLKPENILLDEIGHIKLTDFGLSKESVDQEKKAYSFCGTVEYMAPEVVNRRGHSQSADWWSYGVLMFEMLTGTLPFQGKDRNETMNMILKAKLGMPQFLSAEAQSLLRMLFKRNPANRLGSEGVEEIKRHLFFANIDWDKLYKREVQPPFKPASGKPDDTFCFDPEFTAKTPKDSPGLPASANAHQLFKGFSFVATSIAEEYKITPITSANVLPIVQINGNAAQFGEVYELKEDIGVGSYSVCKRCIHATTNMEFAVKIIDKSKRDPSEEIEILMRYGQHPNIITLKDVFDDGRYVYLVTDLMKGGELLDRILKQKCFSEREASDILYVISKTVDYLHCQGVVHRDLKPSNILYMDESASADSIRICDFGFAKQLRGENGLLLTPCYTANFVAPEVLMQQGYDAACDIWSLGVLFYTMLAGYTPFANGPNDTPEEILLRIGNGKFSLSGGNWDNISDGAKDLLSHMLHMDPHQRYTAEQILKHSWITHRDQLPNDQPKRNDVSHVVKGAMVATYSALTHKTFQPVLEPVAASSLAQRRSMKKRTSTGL
Chain of MAPKAPK3 (Q16644 whole entry, looked up): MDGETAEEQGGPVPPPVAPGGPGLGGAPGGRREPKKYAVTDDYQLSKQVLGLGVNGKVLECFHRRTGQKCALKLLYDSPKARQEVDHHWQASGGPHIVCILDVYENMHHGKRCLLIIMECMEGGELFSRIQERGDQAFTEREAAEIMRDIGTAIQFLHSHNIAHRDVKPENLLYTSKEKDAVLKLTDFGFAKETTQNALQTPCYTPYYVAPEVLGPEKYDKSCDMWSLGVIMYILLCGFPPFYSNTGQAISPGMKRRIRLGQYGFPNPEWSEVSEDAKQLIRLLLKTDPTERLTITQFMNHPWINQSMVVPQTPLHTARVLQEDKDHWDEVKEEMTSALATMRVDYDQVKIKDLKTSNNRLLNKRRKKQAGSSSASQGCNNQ
Chain of UniProt P16234 (P16234 whole entry): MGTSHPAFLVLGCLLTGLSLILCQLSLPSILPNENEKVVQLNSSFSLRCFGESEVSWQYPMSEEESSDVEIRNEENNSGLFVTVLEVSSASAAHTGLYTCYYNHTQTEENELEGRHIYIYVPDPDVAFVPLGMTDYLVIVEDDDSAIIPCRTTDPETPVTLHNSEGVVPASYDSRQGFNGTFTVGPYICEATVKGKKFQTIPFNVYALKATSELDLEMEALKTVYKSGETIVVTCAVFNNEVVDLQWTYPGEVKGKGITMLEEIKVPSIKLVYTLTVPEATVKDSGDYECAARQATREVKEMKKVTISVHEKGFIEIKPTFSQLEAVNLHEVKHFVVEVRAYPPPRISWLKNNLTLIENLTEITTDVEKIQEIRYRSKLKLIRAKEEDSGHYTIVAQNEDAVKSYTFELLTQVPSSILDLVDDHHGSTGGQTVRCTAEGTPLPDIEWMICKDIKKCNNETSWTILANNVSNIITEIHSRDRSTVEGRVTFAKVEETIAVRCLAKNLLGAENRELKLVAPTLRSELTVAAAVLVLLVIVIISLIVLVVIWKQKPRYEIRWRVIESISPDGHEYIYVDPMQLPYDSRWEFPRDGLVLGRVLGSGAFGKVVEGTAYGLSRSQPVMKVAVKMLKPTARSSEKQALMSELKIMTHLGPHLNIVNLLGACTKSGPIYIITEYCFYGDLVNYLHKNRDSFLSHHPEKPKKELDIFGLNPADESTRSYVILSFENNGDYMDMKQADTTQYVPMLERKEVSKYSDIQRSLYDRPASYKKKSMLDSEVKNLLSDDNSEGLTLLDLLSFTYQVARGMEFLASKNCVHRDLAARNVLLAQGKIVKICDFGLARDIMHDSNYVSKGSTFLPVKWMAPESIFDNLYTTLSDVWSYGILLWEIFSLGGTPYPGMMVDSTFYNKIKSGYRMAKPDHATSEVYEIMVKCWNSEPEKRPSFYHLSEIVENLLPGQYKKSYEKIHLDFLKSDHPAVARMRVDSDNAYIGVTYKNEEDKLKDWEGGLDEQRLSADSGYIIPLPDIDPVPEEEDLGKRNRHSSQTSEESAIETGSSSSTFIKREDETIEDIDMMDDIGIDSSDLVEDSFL

CCNC(=O)c1cc(Nc2cc(C)[nH]n2)nc(N2CCN(Cc3ccc(S(=O)(=O)F)cc3)CC2)n1
pIC50 (ADCK1): < 4.52 | pIC50 (MAPKAPK3; cell material: Lysate mix): 5.74 | pIC50 (SGK2): 5.46 | pIC50 (KIT): < 4.52 | pIC50 (UniProt Q9HCP0; cell material: Lysate mix): < 4.52

CCNC(=O)c1cc(Nc2cc(C3CC3)[nH]n2)nc(N2CCN(Cc3ccc(S(=O)(=O)F)cc3)CC2)n1
pIC50 (PRPF4B): 5.12 | pIC50 (UniProt P16234): < 4.52 | pIC50 (SGK2): 5.7 | pIC50 (STRADA; cell material: Lysate mix): 5.29 | pIC50 (KIT): < 4.52 | pIC50 (RPS6KA6): 4.87 | pIC50 (TBK1; cell material: Lysate mix): 5.34

Cc1cc(Nc2cc(C(=O)NCCNC(=O)OC3CC/C=C/CCC3)nc(N3CCN(Cc4ccc(S(=O)(=O)F)cc4)CC3)n2)n[nH]1 (configuration not stated)
pIC50 (PRPF4B): < 4.52 | pIC50 (ADCK1): < 4.52 | pIC50 (SGK2): < 4.52 | pIC50 (STRADA; cell material: Lysate mix): < 4.52 | pIC50 (UniProt Q9HCP0; cell material: Lysate mix): < 4.52 | pIC50 (RPS6KA6): < 4.52 | pIC50 (TBK1; cell material: Lysate mix): < 4.52

C#CCNC(=O)c1cc(Nc2cc(C3CC3)[nH]n2)nc(N2CCN(Cc3ccc(S(=O)(=O)F)cc3)CC2)n1
pIC50 (PRPF4B): < 4.52 | pIC50 (ADCK1): < 4.52 | pIC50 (UniProt P16234): < 4.52 | pIC50 (MAPKAPK3; cell material: Jurkat cells): 6.53 | pIC50 (MAPKAPK3; cell material: Jurkat lysate): 6.64 | pIC50 (SGK2): 6.52 | pIC50 (STRADA; cell material: Jurkat cells): 5.99 | pIC50 (STRADA; cell material: Jurkat lysate): 5.36 | pIC50 (STRADA; cell material: Lysate mix): 5.7 | pIC50 (KIT): < 4.52 | pIC50 (UniProt Q9HCP0; cell material: Jurkat cells): 5.12 | pIC50 (UniProt Q9HCP0; cell material: Jurkat lysate): < 4.52 | pIC50 (RPS6KA6): 4.94 | pIC50 (TBK1; cell material: Jurkat cells): 5.98 | pIC50 (TBK1; cell material: Jurkat lysate): < 4.52 | pIC50 (TBK1; cell material: Lysate mix): 5.28

C#CCNC(=O)c1cc(Nc2cc(C)[nH]n2)nc(N2CCN(Cc3ccc(S(=O)(=O)F)cc3)CC2)n1
pIC50 (ADCK1): < 4.52 | pIC50 (UniProt P16234): < 4.52 | pIC50 (SGK2): 5.8 | pIC50 (KIT): < 4.52 | pIC50 (UniProt Q9HCP0; cell material: Lysate mix): < 4.52 | pIC50 (RPS6KA6): < 4.52 | pIC50 (TBK1; cell material: Lysate mix): < 4.52

O=C(NCCNC(=O)c1cc(Nc2cc(C3CC3)[nH]n2)nc(N2CCN(Cc3ccc(S(=O)(=O)F)cc3)CC2)n1)OC1CC/C=C/CCC1 (configuration not stated)
pIC50 (PRPF4B): < 4.52 | pIC50 (ADCK1): < 4.52 | pIC50 (UniProt P16234): < 4.52 | pIC50 (MAPKAPK3; cell material: Jurkat cells): 6.36 | pIC50 (MAPKAPK3; cell material: Jurkat lysate): 6.28 | pIC50 (MAPKAPK3; cell material: Lysate mix): < 4.52 | pIC50 (STRADA; cell material: Jurkat cells): 5.78 | pIC50 (STRADA; cell material: Jurkat lysate): < 4.52 | pIC50 (STRADA; cell material: Lysate mix): < 4.52 | pIC50 (UniProt Q9HCP0; cell material: Jurkat lysate): < 4.52 | pIC50 (UniProt Q9HCP0; cell material: Lysate mix): < 4.52 | pIC50 (RPS6KA6): < 4.52 | pIC50 (TBK1; cell material: Jurkat cells): 5.71 | pIC50 (TBK1; cell material: Jurkat lysate): < 4.52 | pIC50 (TBK1; cell material: Lysate mix): < 4.52
